Measured values published in patent EP4014997A1, “STARD1 INHIBITORS FOR THE TREATMENT OF LYSOSOMAL DISORDERS” (Consejo Superior de Investigaciones Científicas (CSIC), priority 2020, dated 2022).

Tests used:
PMH from Npc1+/+ mice [1] = experiment: Filipin and cytochrome c co-staining, confocal microscopy (mitochondrial cholesterol); format: cell-based, mouse; conditions: 16 hours
Experimental: (§1) PMH were isolated by collagenase perfusion at a flow rate of 7-9ml/min and cultured at a density of 2×10^5 cells in 12-well plates coated with rat tail collagen. Hepatocytes were cultured in DMEM/F12 culture media (Gibco, 21331-020) supplemented with 10% FBS for the first 3 hours post isolation, together with 10.000U/ml Penicillin-Streptomycin (Gibco, 15140-122), 200mM L-Glutamine (Gibco, 25030-024), 7.5mM D-Glucose (Sigma, G6152) and 150mM Hepes pH 7.4 (Sigma,). For subsequent treatments, FBS was replaced for 1mM methionine (Sigma, M5308).
(§2) PMH from Npc1^+/+ and human Npc^+/+ control fibroblasts were treated with U18666A (2µg/ml) or HMβCD (2mM) for 16 hours. In some other cases, PMH from Npc1^-/- and Npc^-/- fibroblast from NPC patients were treated with HMβCD as above for control PMH.
(§3) PMH were fixed for 15min with 3.7% paraformaldehyde and permeabilized for 5min with 0.2% saponin dissolved in 0.5% BSA-fatty acid free (FAF) in PBS commercial buffer. Cells were blocked with 1% BSA FAF for 15minutes. Cytochrome c (Cytc) (BD Pharmigen, #556432) and Lamp2 (Abcam, #ab13524) primary antibodies were incubated overnight in BSA 1% followed by a secondary antibody for 1 hour at room temperature in BSA 0.1%. Filipin ([…], Sigma) was added during the secondary antibody incubation and the following steps were performed in the dark. Stained samples were embedded in fluoromont (Sigma) and digital images were taken in a Leica SP2 laser scanning confocal microscope equipped with UV excitation, an argon laser, a 633/1.32 OIL PH3 CS objective and a confocal pinhole set at 1 Airy unit. All the confocal images shown were single optical sections. Scale bar represents 25 µm. Percentage of cholesterol mass containing mitochondria was analyzed with the Colocalization nBits nimages plugin (Confocal Microscopy Unit, Facultad de Medicina, Universidad de Barcelona) in the ImageJ Software in 5 consecutive images of each experimental condition.

PMH from Npc1-/- mice = experiment: as above; format: cell-based, mouse; conditions: HMβCD 2mM, 16 hours
Experimental: as §1, §2, §3

Npc+/+ fibroblasts = experiment: as above; format: cell-based, human; conditions: HMβCD 2mM, 16 hours, co-treatment with U18666A; Npc+/+ fibroblasts from control patients
Experimental: (§4) Fibroblasts from patients with NPC disease used have been previously described (Torres et al., Redox Biol. 2017 Apr;11:60-72). Briefly, cultured human skin fibroblasts from control individuals (HSF; GM5659D) and patients with NPC disease were a generous gift from Thierry Levade, Laboratoire de Biochimie Metabolique, Institut Federatif de Biologie (CHU Toulouse, France) or obtained from Coriell Institute for Medical Research (GM03123, NJ, USA) and were grown at 37°C in 5% CO2. DMEM (Gibco) culture medium was supplemented with 10% fetal bovine serum (FBS, Gibco, 10-270-106) and 10.000U/ml Penicillin-Streptomycin (Gibco, 15140-122).
as §2
(§5) PMH were fixed for 15min with 3.7% paraformaldehyde and permeabilized for 5min with 0.2% saponin dissolved in 0.5% BSA-fatty acid free (FAF) in PBS commercial buffer. Cells were blocked with 1% BSA FAF for 15minutes. […] Percentage of cholesterol mass containing mitochondria was analyzed with the Colocalization nBits nimages plugin (Confocal Microscopy Unit, Facultad de Medicina, Universidad de Barcelona) in the ImageJ Software in 5 consecutive images of each experimental condition.

[2] = system: Npc-/- fibroblasts from NPC patients; experiment: as above; format: cell-based, human; conditions: HMβCD 2mM, 16 hours
Experimental: as §4
PMH from Npc1^+/+ and human Npc^+/+ control fibroblasts were treated with U18666A (2µg/ml) or HMβCD (2mM) for 16 hours. In some other cases, PMH from Npc1^-/- and Npc^-/- fibroblast from NPC patients were treated with HMβCD as above for control PMH. […]
as §5, with “buffer.” for “buffer. Cells were blocked with 1% BSA FAF for 15minutes.”

STARD1 [3] = experiment: Western blot of STARD1 protein expression in primary mouse hepatocytes; format: cell-based; conditions: 16 hours
Experimental: as §2
(§6) 100mg of liver were homogenized with a pestle homogenizer in 1ml of homobuffer (70mM saccharose, 220mM mannitol, 2mM Tris-HCI pH 7.4, 0,1mM EDTA, 0.1% fatty acid free BSA) supplemented with protease and phosphatase inhibitors (Roche). Liver homogenates were diluted 4 times with RIPA lysis buffer (Sigma) with anti-proteases and anti-phosphatases. Cells were washed with PBS and lysed with ice-cold RIPA lysis buffer supplemented with protease and phosphatase inhibitors. Samples were incubated 15min at 4°C, vortexed and spinned down for 5min at 10000rpm. All supernatants were collected and quantified for protein concentration using Quick-Bradford reagent (Bio-Rad) and 20-50µg of protein were subjected to 4-12% SDS-polyacrylamide gel electrophoresis (SDS-PAGE) (Bio-Rad, XT-Criterion). Proteins were electrotransferred at 4°C onto Hybond ECL nitrocellulose membranes (Amersham) and 5% BSA solution in TBS-Tween was used to block the membranes for 1h at room temperature. Membranes were incubated overnight with the following primary antibodies: anti-PDI (Cell Signaling, 24465), anti-CHOP (Cell Signaling, 2895S), anti-Phospho eiF2A (Cell Signaling, 9721S), anti-eiF2A (Cell Signaling, 9722) and anti-STARD1 (Abcam, ab58013), anti-BIP (Stressgen, SPA826), anti-XBP1 (Santa Cruz, CS-8015) and anti-Mln64 (Santa Cruz SC-292868), ACDAse (Sigma, SAB3500293), LRH-1 (Santa Cruz, Cs-393369) and anti-β-Actin HRP-conjugated (Sigma, A3854). Membranes were thoroughly washed with TBS-Tween and incubated for 45min with their respective HRP-conjugated secondary antibodies. Pierce ECL Western Blotting Substrate (Thermo Scientific) was used to develop the membranes. Images were digitally captured by LAS4000 (GE Healthcare) and optical density was analyzed with ImageJ software.

STARD1 [4] = experiment: Western blot of STARD1 protein expression in human fibroblasts; format: cell-based; conditions: 16 hours
Experimental: as §2
(§7) Fibroblasts from NPC patients were transfected with cDNA to overexpress ACDase (ASAH1) (SEQ ID NO: 5; MGC Human ASAH1 Sequence-Verified cDNA Accession: BC016481 Clone ID: 3923451) commercially purchased from GE Dharmacon. Transfection was performed using Lipofectamine2000 (Invitrogen). Briefly, 250000 fibroblasts were incubated with the transfection mixtures containing 250ng of the sobrexpression ACDase vector or the scrambled control-GFP vector. Cells were assayed 48 h after transfection for mRNA and protein levels. SEQ ID NO: 5 >ENA|BC016481|BC016481.1 Homo sapiens N-acylsphingosine amidohydrolase (acid ceramidase) 1, mRNA (cDNA clone MGC:9327 IMAGE:3923451), complete cds. [formula] [formula] [formula]
(§8) 100mg of liver were homogenized with a pestle homogenizer in 1ml of homobuffer (70mM saccharose, 220mM mannitol, 2mM Tris-HCI pH 7.4, 0,1mM EDTA, 0.1% fatty acid free BSA) supplemented with protease and phosphatase inhibitors (Roche). Liver homogenates were diluted 4 times with RIPA lysis buffer (Sigma) with anti-proteases and anti-phosphatases. Cells were washed with PBS and lysed with ice-cold RIPA lysis buffer supplemented with protease and phosphatase inhibitors. Samples were incubated 15min at 4°C, vortexed and spinned down for 5min at 10000rpm. All supernatants were collected and quantified for protein concentration using Quick-Bradford reagent (Bio-Rad) and 20-50µg of protein were subjected to 4-12% SDS-polyacrylamide gel electrophoresis (SDS-PAGE) (Bio-Rad, XT-Criterion). Proteins were electrotransferred at 4°C onto Hybond ECL nitrocellulose membranes (Amersham) and 5% BSA solution in TBS-Tween was used to block the membranes for 1h at room temperature. […] Images were digitally captured by LAS4000 (GE Healthcare) and optical density was analyzed with ImageJ software.

MLN64 [5] = experiment: Western blot of MLN64 protein expression in primary mouse hepatocytes; format: cell-based; conditions: HMβCD 2mM, 16 hours, co-treatment with U18666A; PMH from Npc1+/+ mice
Experimental: as §2, §8

MLN64 [6] = experiment: Western blot of MLN64 protein expression in human fibroblasts; format: cell-based; conditions: HMβCD 2mM, 16 hours, co-treatment with U18666A; control Npc+/+ fibroblasts
Experimental: as §2
as §7, with “SEQ ID NO: 5 >ENA|BC016481|BC016481.1 Homo sapiens N-acylsphingosine amidohydrolase (acid ceramidase) 1, mRNA (cDNA clone MGC:9327 IMAGE:3923451), complete cds. [formula] [formula] [formula]” left out
100mg of liver were homogenized with a pestle homogenizer in 1ml of homobuffer (70mM saccharose, 220mM mannitol, 2mM Tris-HCI pH 7.4, 0,1mM EDTA, 0.1% fatty acid free BSA) supplemented with protease and phosphatase inhibitors (Roche). […] All supernatants were collected and quantified for protein concentration using Quick-Bradford reagent (Bio-Rad) and 20-50µg of protein were subjected to 4-12% SDS-polyacrylamide gel electrophoresis (SDS-PAGE) (Bio-Rad, XT-Criterion). […] Images were digitally captured by LAS4000 (GE Healthcare) and optical density was analyzed with ImageJ software.

ACDase [7] = experiment: Western blot of ACDase protein expression in primary mouse hepatocytes; format: cell-based; conditions: 16 hours
Experimental: as §2, §6

ACDase [8] = experiment: Western blot of ACDase protein expression in human fibroblasts; format: cell-based; conditions: 16 hours
Experimental: as §2, §7, §8

[9] = system: Npc1 gene-defective (Npc1-/-) mice; conditions: cited from earlier work
NPC child patients = conditions: intravenous instillation 2500 mg/kg per time, 1 to 3 times per week, more than 1 year; cited from earlier work
PMH from Npc1+/+ mice [10] = experiment: Filipin and Lamp2 co-staining, confocal microscopy (lysosomal cholesterol); format: cell-based, mouse; conditions: U18666A 2µg/ml, 16 hours
Experimental: as §1, §2, §5

ER stress markers = experiment: Western blot of ER stress markers in primary mouse hepatocytes; format: cell-based; conditions: incubation of Npc1+/+ PMH with U18666A
Experimental: as §2, §8

patients = conditions: NPC patients; cited from earlier work
[11] = system: ER stress markers (BIP, PDI and CHOP); experiment: Western blot of ER stress markers in human fibroblasts; format: cell-based; conditions: control Npc+/+ fibroblasts
Experimental: as §8

[12] = HMβCD 2mM, co-treatment with U18666A, PMH from Npc1+/+ mice
[13] = HMβCD 2mM, PMH from Npc1-/- mice, no U18666A
[14] = HMβCD 2mM, co-treatment with U18666A, control Npc+/+ fibroblasts
[15] = HMβCD 2mM, Npc-/- fibroblasts from NPC patients, no U18666A
[16] = U18666A 2µg/ml, PMH from Npc1+/+ mice

CC(O)COC[C@H]1O[C@@H]2O[C@H]3[C@H](O)[C@@H](O)[C@@H](O[C@H]4[C@H](O)[C@@H](O)[C@@H](O[C@H]5[C@H](O)[C@@H](O)[C@@H](O[C@H]6[C@H](O)[C@@H](O)[C@@H](O[C@H]7[C@H](O)[C@@H](O)[C@@H](O[C@H]8[C@H](O)[C@@H](O)[C@@H](O[C@H]1[C@H](O)[C@H]2O)O[C@@H]8COCC(C)O)O[C@@H]7COCC(C)O)O[C@@H]6COCC(C)O)O[C@@H]5COCC(C)O)O[C@@H]4COCC(C)O)O[C@@H]3COCC(C)O (stereo partly drawn) [HMβCD, 2-hydroxypropyl-β-cyclodextrin]
U18666A-induced cholesterol accumulation and trafficking to mitochondria (PMH from Npc1+/+ mice [1]; [12]): prevented U18666A-induced cholesterol accumulation and trafficking to mitochondria
mitochondrial cholesterol increase (PMH from Npc1-/- mice): exhibited the same changes induced by HMβCD
U18666A-induced cholesterol accumulation and trafficking to mitochondria (Npc+/+ fibroblasts): prevented U18666A-induced cholesterol accumulation and trafficking to mitochondria
mitochondrial cholesterol increase [2]: exhibited the same changes induced by HMβCD
increase of STARD1 induced by U18666A (STARD1 [3]; [12]): reverse the increase of STARD1
expression levels of STARD1 (STARD1 [3]; [13]): exhibited the same changes induced by HMβCD
increase of STARD1 induced by U18666A (STARD1 [4]; [14]): reverse the increase of STARD1
expression levels of STARD1 (STARD1 [4]; [15]): exhibited the same changes induced by HMβCD
increased expression of MLN64 induced by U18666A (MLN64 [5]): prevented the increased expression of MLN64
increased expression of MLN64 induced by U18666A (MLN64 [6]): prevented the increased expression of MLN64
repression of ACDase induced by U18666A (ACDase [7]; [12]): reverse the increase of STARD1 and the repression of ACDase
expression levels of ACDase (ACDase [7]; [13]): exhibited the same changes induced by HMβCD
repression of ACDase induced by U18666A (ACDase [8]; [14]): reverse the increase of STARD1 and the repression of ACDase
expression levels of ACDase (ACDase [8]; [15]): exhibited the same changes induced by HMβCD
improving effect, direct administration into the brain compared with systemic administration ([9]; directly administered into the brain, Npc1-/- mice): increased a few hundred times
medical state or survival ([9]; intravenously administered, Npc1-/- mice): effective in improving the medical state or prolonging survival
crossing of the blood brain barrier ([9]; mouse, in vivo): inability of HPBCD to cross the blood brain barrier
nervous symptom (NPC child patients): saw no improvement
side effects (NPC child patients): severe side effects have been observed
splenomegaly and brain wave (NPC child patients): certain effect of reduction of splenomegaly and improvement in a brain wave

CCN(CC)CCO[C@H]1CC[C@@]2(C)C(=CC[C@@H]3[C@@H]2CC[C@]2(C)C(=O)CC[C@@H]32)C1 [U18666A]
lysosomal cholesterol accumulation (filipin and Lamp2 staining) (PMH from Npc1+/+ mice [10]): significantly increased lysosomal cholesterol accumulation
accumulation of cholesterol in mitochondria (colocalization of filipin and CytC staining) (PMH from Npc1+/+ mice [1]; U18666A 2µg/ml, Npc1+/+ PMH): stimulated the accumulation of cholesterol in mitochondria
STARD1 expression (STARD1 [3]; [16]): significantly increased STARD1
STARD1 expression (STARD1 [4]; U18666A 2µg/ml, Npc+/+ fibroblasts): significantly increased STARD1
expression of ACDase (ACDase [7]; [16]): decreased the expression of ACDase
expression of ACDase (ACDase [8]; U18666A 2µg/ml, control Npc+/+ fibroblasts): decreased the expression of ACDase
ER stress markers (ER stress markers): failed to induce ER stress markers

CCCCN1C[C@H](O)[C@@H](O)[C@H](O)[C@H]1CO [miglustat]
life span of patients (patients): extends the life span of patients

tunicamycin
markers of ER stress (BIP, PDI and CHOP) [11]: induced markers of ER stress
